Results reported in patent US20090105283A1, “3-HYDROQUINAZOLIN-4-ONE DERIVATIVES FOR USE AS STEAROYL CoA DESATURASE INHIBITORS” (priority 2007, published 2009).
Several values for one entry are separate records, joined by “and”; a condition that tells them apart may be missing. Equal values may be shown once.

Target: T1, stearoyl-CoA desaturase (SCD) (Rattus norvegicus, UniProt P07308)
T1 construct: The microsomes were quickly thawed and added to assay buffer so that a concentration of 0.4 mg/ml was achieved; from tissue
T1 sequence (P07308 1-358): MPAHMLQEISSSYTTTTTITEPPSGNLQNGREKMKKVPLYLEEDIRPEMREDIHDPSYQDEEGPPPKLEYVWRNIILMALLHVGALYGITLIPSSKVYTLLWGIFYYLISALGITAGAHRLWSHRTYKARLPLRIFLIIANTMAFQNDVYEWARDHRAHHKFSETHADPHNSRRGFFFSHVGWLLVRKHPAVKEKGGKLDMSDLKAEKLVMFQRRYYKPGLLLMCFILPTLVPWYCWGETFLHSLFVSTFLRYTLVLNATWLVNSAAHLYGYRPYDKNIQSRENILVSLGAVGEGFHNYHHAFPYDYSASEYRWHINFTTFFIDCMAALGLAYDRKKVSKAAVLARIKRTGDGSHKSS
Test: SCD assay with rat liver microsomes ([3H]stearoyl CoA, adapted from Talamo and Bloch)
Type: biochemical
Conditions: [3H]stearoyl CoA substrate
From the text: Male Spraque Dawley Rats were placed on regimented fasting protocol for one week to stimulate SCD enzymatic activity. 48-hour periods were alternated between feeding and fasting to induce and down-regulate SCD activity with SCD activity being induced via carbohydrate rich diet prior to liver perfusion and collection.
The rats were anesthetized with Isoflurane inhalation anesthetic, the liver perfused with cold phosphate buffered saline (PBS), weighed, and chilled in cold homogenization buffer (250 mM sucrose, 10 mM Tris, 1 mM EDTA, pH 7.6.
The livers were finely minced and placed in homogenization tube. 40 mL of homogenization buffer was added to the homogenization tube and the liver homogenized and centrifuged in a pre-chilled […] for 10 min at 4° C.
Following centrifugation, the supernatant was collected and the pellet removed and discarded. The supernatant was centrifuge at 10,000 G for 35 minutes. Following centrifugation, the supernatant was collect and the pellet discarded. The supernatant was then centrifuged in a pre-chilled 45-Ti rotor at 130,000 G (41,000 RPM) for 90 minutes at 4° C.
The supernatant was then aspirated off and the collected microsomal pellet washed in 25 mL of Glycerol PBS (1×PBS 7.4, 20% Glycerol) and resuspended in 4-5 volumes of Glycerol PBS.
The protein concentration of the microsomal preparation was determined by BCA assay (Pierce) and the microsomes were aliquoted and stored at −80° C.
Biobeads were ground to a smaller size in a mortar and pestle and resuspended in 3.6% TCA. The beads were then filtered through […] mesh.
SCD was determined in the desaturase assay buffer. This assay buffer contained 0.1 M Tris buffer, pH 7.2, 2 mM NADH, 4.8 mM ATP, 0.5 mM CoA, 4.8 mM MgCl2, and 0.1% BSA.
1 μl of each compound of Formula I was added to an assay plate by a low volume (0.5-10 μL) multichannel pipette. A DMSO control was also prepared. The microsomes were quickly thawed and added to assay buffer so that a concentration of 0.4 mg/ml was achieved (0.2 mg/ml assay final). 50 μl of the microsome suspension in assay buffer was then added into each well in the compound assay plate, the plate was covered, and the microsomes preincubated with the compounds for 30 minutes on the orbital shaker, 50-75 rpm, at room temperature.
The reaction mixtures were then incubated for 45 minutes on the orbital shaker at 50-75 rpm at room temperature.
The reaction was terminated by the addition of 10 μl of 21% trichloroacetic acid (TCA) to the reaction mixture followed incubation on the orbital shaker for 30 minutes at 50-75 rpm at room temperature followed by centrifugation for 5 minutes at 3700 rpm.
50 μl of a 6% Bio-Bead suspension in H2O was added to the reaction mixture and the assay plate was sealed. The Bio-Bead mixture was incubated on the orbital shaker for 1 hour, 100-150 rpm at room temperature, and then the mixture was centrifuged at 2000 g for 5 minutes to pellet the Bio-Beads.
25 μl of the supernatant was harvested from each well and transferred to a detection plate. 100 μl of OptiPhase SuperMix scinitillation cocktail (containing sufficient NaOH to neutralize the TCA) was added and the solutions mixed by vigorous shaking (300-400 rpm) for 5 minutes at room temperature.

[1] = Table 1, rat liver microsomes 0.2 mg/ml assay final, 30 min preincubation, 45 min reaction, room temperature
[2] = Table 2 (Example 21, procedures of Example 20), rat liver microsomes

IC50 [1]	IC50 [2] [µM]	SMILES
0.29 µM		CC(=O)OCC(=O)Nc1ccc2c(=O)n(Cc3cccc(F)c3)cnc2c1 [LXXII, (N-{3-[(3-fluorophenyl)methyl]-4-oxo-3-hydroquinazolin-7-yl}carbamoyl)methyl acetate]
21 µM		O=C(COc1cccc2nsnc12)Nc1ccc2ncn(Cc3ccc(Cl)c(Cl)c3)c(=O)c2c1 [XXXV, 2-benzo[c]1,2,5-thiadiazol-4-yloxy-N-{3-[(3,4-dichlorophenyl)methyl]-4-oxo(3-hydroquinazolin-6-yl)}acetamide]
3.18 µM		O=C(NCc1ccccc1)Nc1ccc2ncn(Cc3ccc(Cl)c(Cl)c3)c(=O)c2c1 [V, N-{3-[(3,4-dichlorophenyl)methyl]-4-oxo(3-hydroquinazolin-6-yl)}[benzylamino]carboxamide]
	1.3	O=C(CO)Nc1ccc2ncn(CCCCCOc3cc(Cl)ccc3Cl)c(=O)c2c1 [compound 64, N-(3-(5-(2,5-dichlorophenoxy)pentyl)-4-oxo-3,4-dihydroquinazolin-6-yl)-2-hydroxyacetamide]
	1.4	COc1cccc(Cn2cnc3ccc(NC(=O)OCc4ccccc4)cc3c2=O)c1 [compound 12, benzyl 3-(3-methoxybenzyl)-4-oxo-3,4-dihydroquinazolin-6-ylcarbamate]
2.32 µM and 2.23 µM		O=C(CO)Nc1ccc2c(=O)n(Cc3ccc(F)c(Cl)c3)cnc2c1 [LXXXVII, N-{3-[(3-chloro-4-fluorophenyl)methyl]-4-oxo(3-hydroquinazolin-7-yl)}-2-hydroxyacetamide]
	23	O=C(CO)Nc1ccc2ncn(CCCOc3ccccc3)c(=O)c2c1 [compound 68, 2-hydroxy-N-(4-oxo-3-(3-phenoxypropyl)-3,4-dihydroquinazolin-6-yl)acetamide]
	1.7	O=C(NCCOc1ccccc1)c1ccc2c(=O)n(Cc3ccc(Cl)c(Cl)c3)cnc2c1 [compound 87, 3-(3,4-dichlorobenzyl)-4-oxo-N-(2-phenoxyethyl)-3,4-dihydroquinazoline-7-carboxamide]
	17	O=C(CO)Nc1ccc2ncn(CCOc3ccc(Cl)cc3)c(=O)c2c1 [compound 74, N-(3-(2-(4-chlorophenoxy)ethyl)-4-oxo-3,4-dihydroquinazolin-6-yl)-2-hydroxyacetamide]
1.38 µM		O=C(CO)Nc1ccc2ncn(Cc3cccc(C(F)(F)F)c3)c(=O)c2c1 [XCV, 2-hydroxy-N-(4-oxo-3-{[3-(trifluoromethyl)phenyl]methyl}(3-hydroquinazolin-6-yl))acetamide]
	21	O=C(CO)Nc1ccc2ncn(CCNC(=O)c3cc(Cl)ccc3Cl)c(=O)c2c1 [compound 67, 2,5-dichloro-N-(2-(6-(2-hydroxyacetamido)-4-oxoquinazolin-3(4H)-yl)ethyl)benzamide]
15 µM		O=C(COc1ccccc1[N+](=O)[O-])Nc1ccc2ncn(Cc3ccc(Cl)c(Cl)c3)c(=O)c2c1 [XXXI, N-{3-[(3,4-dichlorophenyl)methyl]-4-oxo(3-hydroquinazolin-6-yl)}-2-(2-nitrophenoxy)acetamide]
0.44 µM		O=C(Nc1ccc2ncn(Cc3ccc(Cl)c(Cl)c3)c(=O)c2c1)OCc1ccco1 [LXIII, N-{3-[(3,4-dichlorophenyl)methyl]-4-oxo(3-hydroquinazolin-6-yl)}(2-furylmethoxy)carboxamide]
0.28 µM		O=C(Nc1ccc2c(=O)n(Cc3cccc(Cl)c3)cnc2c1)OCc1cccnc1 [LIX, N-{3-[(3-chlorophenyl)methyl]-4-oxo(3-hydroquinazolin-7-yl)}(3-pyridylmethoxy)carboxamide]
0.22 µM		O=C(COc1ccccc1)Nc1ccc2ncn(Cc3ccc(Cl)c(Cl)c3)c(=O)c2c1 [XV, N-{3-[(3,4-dichlorophenyl)methyl]-4-oxo(3-hydroquinazolin-6-yl)}-2-phenoxyacetamide]
27.1 µM		CC(=O)OCC(=O)Nc1ccc2c(=O)n(Cc3cccc(Cl)c3)cnc2c1 [LXV, (N-{3-[(3-chlorophenyl)methyl]-4-oxo-3-hydroquinazolin-7-yl}carbamoyl)methyl acetate]
	0.13	CC(=O)OCC(=O)Nc1ccc2c(=O)n(C(C)c3ccc(Cl)c(Cl)c3)cnc2c1 (centres unmarked) [compound 10, 2-(3-(1-(3,4-dichlorophenyl)ethyl)-4-oxo-3,4-dihydroquinazolin-7-ylamino)-2-oxoethyl acetate]
	4.9	O=C(CO)Nc1ccc2ncn(CCc3ccc(Cl)cc3Cl)c(=O)c2c1 [compound 39, N-(3-(2,4-dichlorophenethyl)-4-oxo-3,4-dihydroquinazolin-6-yl)-2-hydroxyacetamide]
	7.5	CNC(=O)c1ccc2c(=O)n(Cc3ccc(Cl)cc3)cnc2c1 [compound 89, 3-(4-chlorobenzyl)-N-methyl-4-oxo-3,4-dihydroquinazoline-7-carboxamide]
25.7 µM		C=CCOC(=O)Nc1ccc2ncn(Cc3ccc(Cl)cc3)c(=O)c2c1 [XIV, N-{3-[(4-chlorophenyl)methyl]-4-oxo(3-hydroquinazolin-6-yl)}prop-2-enyloxycarboxamide]
0.09 µM		O=C(Nc1ccc2c(=O)n(Cc3ccc(Cl)cc3)cnc2c1)OCc1ccccc1 [XLVIII, N-{3-[(4-chlorophenyl)methyl]-4-oxo(3-hydroquinazolin-7-yl)}(phenylmethoxy)carboxamide]
	14	O=C(CO)Nc1ccc2ncn(CCCNS(=O)(=O)c3ccccc3C(F)(F)F)c(=O)c2c1 [compound 73, 2-hydroxy-N-(4-oxo-3-(3-(2-(trifluoromethyl)phenylsulfonamido)propyl)-3,4-dihydroquinazolin-6-yl)acetamide]
	0.64	O=C(CO)Nc1ccc2ncn(CCCOc3cccc(Cl)c3Cl)c(=O)c2c1 [compound 65, N-(3-(3-(2,3-dichlorophenoxy)propyl)-4-oxo-3,4-dihydroquinazolin-6-yl)-2-hydroxyacetamide]
2.74 µM		CC(=O)OCC(=O)Nc1ccc2ncn(Cc3ccc(C(F)(F)F)cc3)c(=O)c2c1 [XCVI, [N-(4-oxo-3-{[4-(trifluoromethyl)phenyl]methyl}-3-hydroquinazolin-6-yl)carbamoyl]methyl acetate]
0.1 µM		CC(=O)OCC(=O)Nc1ccc2ncn(Cc3ccc(Cl)c(Cl)c3)c(=O)c2c1 [XLVII, (N-{3-[(3,4-dichlorophenyl)methyl]-4-oxo-3-hydroquinazolin-6-yl}carbamoyl)methyl acetate]
	1.8	O=C(C[C@H](O)c1ccccc1)Nc1ccc2ncn(Cc3ccc(Cl)c(Cl)c3)c(=O)c2c1 [compound 98, (S)—N-(3-(3,4-dichlorobenzyl)-4-oxo-3,4-dihydroquinazolin-6-yl)-3-hydroxy-3-phenylpropanamide]
2.01 µM		O=C(COc1cccc(F)c1)Nc1ccc2ncn(Cc3ccc(Cl)c(Cl)c3)c(=O)c2c1 [XXVII, N-{3-[(3,4-dichlorophenyl)methyl]-4-oxo(3-hydroquinazolin-6-yl)}-2-(3-fluorophenoxy)acetamide]
	0.055	O=C(CO)Nc1ccc2ncn(CCCOc3cc(Cl)ccc3Cl)c(=O)c2c1 [compound 43, N-(3-(3-(2,5-dichlorophenoxy)propyl)-4-oxo-3,4-dihydroquinazolin-6-yl)-2-hydroxyacetamide]
3.43 µM		O=C(COc1ccc(F)cc1F)Nc1ccc2ncn(Cc3ccc(Cl)c(Cl)c3)c(=O)c2c1 [XXVIII, N-{3-[(3,4-dichlorophenyl)methyl]-4-oxo(3-hydroquinazolin-6-yl)}-2-(2,4-difluorophenoxy)acetamide]
